# Experimental data reported in patent publication US9126941B2, “Treatment of hyperproliferative disorders with diarylhydantoin compounds” (The Regents of the University of California, priority 2005, dated 2015).
# “Also recorded” adds a separate entry of the source. Where two headings read alike, the source gives them in different places.
# How the values were obtained:
# DU-145 cells = assay: MTS growth assay, DU-145 cells; format: cell-based; details: prostate cancer cell line lacking AR expression
# MCF7 = assay: Growth effect on MCF7 cells; format: cell-based; details: breast cancer cells
# SkBr3 = assay: Growth effect on SkBr3 cells; format: cell-based; details: breast cancer cells
# 3T3 = assay: Growth effect on 3T3 fibroblasts; format: cell-based; details: normal mouse fibroblast cell line
# LNCaP cells = assay: MTS growth assay, hormone sensitive LNCaP cells; format: cell-based; details: for Potency relative to bicalutamide on hormone sensitive prostate cancer cells: FIG. 10, MTS
# Procedure: FIG. 10. Inhibitory effect on growth of hormone sensitive prostate cancer cells. […] After 4 days of incubation, cell growth was measured by MTS assay.
# AR [1] = target: T1, AR (Homo sapiens, UniProt P10275); assay: cell-based; format: cell-based
# T1 sequence (P10275 whole entry, looked up): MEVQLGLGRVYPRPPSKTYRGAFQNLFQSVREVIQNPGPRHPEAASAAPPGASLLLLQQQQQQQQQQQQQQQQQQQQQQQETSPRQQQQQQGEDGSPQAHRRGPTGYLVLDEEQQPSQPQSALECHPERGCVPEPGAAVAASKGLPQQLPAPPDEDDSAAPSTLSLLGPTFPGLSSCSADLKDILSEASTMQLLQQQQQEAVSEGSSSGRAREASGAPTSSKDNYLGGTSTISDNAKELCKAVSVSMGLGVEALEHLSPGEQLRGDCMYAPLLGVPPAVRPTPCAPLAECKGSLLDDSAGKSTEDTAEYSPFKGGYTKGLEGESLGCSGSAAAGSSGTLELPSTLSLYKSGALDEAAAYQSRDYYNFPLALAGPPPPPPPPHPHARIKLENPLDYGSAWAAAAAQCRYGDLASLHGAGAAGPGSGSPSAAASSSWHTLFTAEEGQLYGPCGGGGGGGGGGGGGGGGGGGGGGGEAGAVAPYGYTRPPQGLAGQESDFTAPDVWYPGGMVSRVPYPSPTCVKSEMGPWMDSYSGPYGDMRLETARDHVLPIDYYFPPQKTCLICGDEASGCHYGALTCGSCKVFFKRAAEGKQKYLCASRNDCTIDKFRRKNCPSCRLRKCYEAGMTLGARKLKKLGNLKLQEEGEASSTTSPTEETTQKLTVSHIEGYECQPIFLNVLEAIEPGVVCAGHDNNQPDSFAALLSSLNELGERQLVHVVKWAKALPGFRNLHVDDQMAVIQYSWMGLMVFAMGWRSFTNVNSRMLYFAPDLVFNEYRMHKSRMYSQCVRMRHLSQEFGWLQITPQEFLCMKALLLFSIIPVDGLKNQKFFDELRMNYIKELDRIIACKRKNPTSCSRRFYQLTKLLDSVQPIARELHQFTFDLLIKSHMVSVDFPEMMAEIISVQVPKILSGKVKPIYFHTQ
# Procedure: The compounds were subjected to tests using an artificial AR response reporter system in a hormone refractory prostate cancer cell line. […] After two days of incubation, reporter activities were assayed.
# AR [2] = target: T1, AR; assay: cell-based; format: cell-based; remark: listed apart in the source
# Procedure: It is well established that PSA levels are indicators of AR activities in prostate cancer. […] The LNCaP-AR cells are a line of lymph node carcinoma of prostate cells transduced with a plasmid that makes express androgen receptors. […] After four days incubation, secreted PSA levels were assayed using PSA ELISA kits (American Qualex, San Clemente, Calif.)
# AR [3] = target: T1, AR; assay: cell-based
# Excerpt: Table 2 lists the agonistic activities of different compounds.
# AR [4] = target: T1, AR; assay: cell-based; format: cell-based; remark: listed apart in the source
# [5] = target: glucocorticoid receptor (GR) (Homo sapiens (Human), UniProt P04150); assay: GR response reporter in LNCaP cells over expressing glucocorticoid receptor; format: cell-based; details: reporter induced by dexamethasone
# Sequence of glucocorticoid receptor (GR) (P04150 whole entry, species assumed): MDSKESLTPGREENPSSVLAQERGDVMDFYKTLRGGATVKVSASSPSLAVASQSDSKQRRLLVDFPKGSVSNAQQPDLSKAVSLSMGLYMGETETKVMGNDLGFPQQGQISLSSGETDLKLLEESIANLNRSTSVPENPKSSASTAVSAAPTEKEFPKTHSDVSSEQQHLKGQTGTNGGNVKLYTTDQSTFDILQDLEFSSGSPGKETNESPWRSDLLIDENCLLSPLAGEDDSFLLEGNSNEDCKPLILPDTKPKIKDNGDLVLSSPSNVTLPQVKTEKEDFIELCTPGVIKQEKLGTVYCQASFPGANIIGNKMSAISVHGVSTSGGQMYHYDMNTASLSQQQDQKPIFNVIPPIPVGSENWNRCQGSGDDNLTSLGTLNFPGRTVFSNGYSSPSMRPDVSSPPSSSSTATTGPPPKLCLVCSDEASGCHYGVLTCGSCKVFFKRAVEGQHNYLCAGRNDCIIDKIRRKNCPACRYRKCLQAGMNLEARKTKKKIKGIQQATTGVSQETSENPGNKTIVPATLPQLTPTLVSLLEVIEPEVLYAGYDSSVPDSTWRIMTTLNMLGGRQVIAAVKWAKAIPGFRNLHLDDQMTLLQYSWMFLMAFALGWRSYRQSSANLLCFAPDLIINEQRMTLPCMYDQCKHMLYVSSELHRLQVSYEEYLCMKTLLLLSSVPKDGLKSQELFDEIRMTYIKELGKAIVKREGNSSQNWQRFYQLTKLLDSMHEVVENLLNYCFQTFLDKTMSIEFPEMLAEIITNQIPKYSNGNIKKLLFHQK
# [6] = tested on: AR-overexpressed LNCaP xenograft tumors; assay: AR-overexpressed LNCaP xenograft model in castrated male SCID mice, oral once daily; format: in vivo; details: 44 days; for Growth of LNCaP-AR xenograft tumors (FIG. 7a): 1 mg per kg orally once daily
# Procedure: FIG. 7. […] Mice with established LN-AR xenograft tumors were randomized and treated with indicated compounds orally once daily. Tumor size was measured by caliber.
# FIG. 8. […] The tumors were taken out from the mice after 44 days of treatment, tumor lysate was extracted, and PSA level in tissue lysate was determined by ELISA.
# First we examined this compound on xenograft tumors established from AR-overexpressed LNCaP cells. The engineered cells in Matrigel (Collaborative Biomedical) were injected subcutaneously into the flanks of the castrated male SCID mice. Tumor size was measured weekly in three dimensions using calipers. After xenograft tumors established (tumor size reached at least 40 mm^3), mice with tumors were randomized and treated with different doses of compounds orally once daily.
# [7] = tested on: hormone refractory LAPC4 xenograft; assay: Hormone refractory LAPC4 xenograft model; format: in vivo, mice; details: 1 mg per kg orally once daily, 17 days
# Procedure: FIG. 9. […] (A), tumor size was measured by caliber. (B), the tumors were taken out from the mice after 17 days of treatment, tumor lysate was extracted, and PSA level in tissue lysate was determined by ELISA.
# This model was established from passaging of hormone sensitive prostate cancer in castrated mice, which mimics the clinical progression of prostate cancer (2).
# [8] = Pharmacokinetics in FVB mice, drug concentration by HPLC
# Procedure: Mice were divided into groups of three for each time points. Two mice were not treated with drug and two other mice were treated with vehicle solution. […]
# The drug was dissolved in a mixture 1:5:14 of DMSO:PEG400:H20. (Vehicle solution) and was administered into mice through the tail vein. The animals are warmed under a heat lamp for approximately 20 minutes prior to treatment to dilate their tail vein. […] After drug administration, the animals were euthanized via CO2 inhalation at different timepoints: […], […], 2 h, 6 h, 16 h. Animals were immediately bleed after exposure to CO2 via cardiac puncture (1 ml BD syringe+27 G ⅝ needle).
# The samples for HPLC analysis were prepared according to the following procedure: • Blood cells were separated from serum by centrifugation. • To 400 μl of serum were added 80 μl of a 10 μM solution of an internal standard and 520 μl of acetonitrile. Precipitation occurred. • The mixture was vortexed for 3 minutes and then placed under ultrasound for 30 minutes. • The solid particles were filtered off or were separated by centrifugation. • The filtrate was dried under an argon flow to dryness.
# L1AR cell line = assay: Luciferase activity of the L1AR cell line; format: cell-based; details: at a given concentration, 125 nmol to 1000 nmol
# [9] = tested on: LNCaP-AR xenograft tumors; assay: LNCaP-AR xenograft in SCID mice, tumor size and luciferase imaging (RD162); format: in vivo; details: for Tumor growth / tumor volume over time (FIG. 11): 10 or 50 mg/kg orally every day, 18 days; for Photon emission associated with luciferase activity (FIG. 12): day 18, 3 hours after last dose
# Procedure: FIG. 11 is a graph of tumor size. AR overexpressing LNCaP cells were injected in the flanks of castrated […] mice, subcutaneously. When tumors reached about 100 cubic mm, they were randomized into five groups. Each group had nine animals. […] The tumors were measured three-dimensionally, width, length and depth, using a caliper.
# FIG. 12 depicts experimental results of tumor size. At day 18, the animals were imaged via an optical CCD camera, 3 hours after last dose of treatment. A ROI was drawn over the tumor for luciferase activity measurement in photon/second. The right panels is a representation of the ROIs measurements.
# (A) The relative tumor volume as a function of time shown for each set of mice. (B) Images of each set of mice with photon emission associated with luciferase activity at day 31 shown as color contours. (C) Rate of photon emission associated with luciferase activity shown at several times for each set of mice.
# All animal experiments were performed in compliance with the guidelines of the Animal Research Committee of the University of California at Los Angeles. Animals were bought from Taconic and maintained in a laminar flow tower in a defined flora colony. LNCaP-AR and LNCaP-vector cells were maintained in RPMI medium supplemented with 10% FBS. 10^6 cells in 100 μl of 1:1 Matrigel to RPMI medium were injected subcutaneously into the flanks of intact or castrated male SCID mice. Tumor size was measured weekly in three dimensions (length×width×depth) using calipers. Mice were randomized to treatment groups when tumor size reached approximately 100 mm^3. Drugs were given orally every day at 10 mg/kg and 50 mg/kg. To obtain pharmacodynamic readout, the animals were imaged via an optical CCD camera, 3 hours after last dose of the treatment. A ROI is drawn over the tumor for luciferase activity measurement in photon/second. The right panels were a representation of the ROIs measurements.
# [10] = tested on: castrated luciferase transgenic mice; assay: Castrated luciferase transgenic mice with implanted testosterone pellet, urogenital tract weight and photon emission; format: in vivo; details: 10 mg per kg per day, 14 days
# Excerpt: FIG. 23 presents results of an experiment conducted with wild type nontransgenic mice (WT), castrated luciferase transgenic mice (Cast), and non-castrated luciferase transgenic mice (Intact). […] (A) Urogenital tract weight at 14 days. (B) Photon emission rate at 14 days.
# [11] = 10 mg per kg per day, LN-AR (HR) in SCID mice
smiles,measurement,setting,value
"Cc1ccc(N2C(=S)N(c3ccc(C#N)c(C(F)(F)F)c3)C(=O)C2(C)C)cc1 [RD7, 4-[3-(4-methylphenyl)-4,4-dimethyl-5-oxo-2-thioxoimidazolidin-1-yl]-2-trifluoromethyl-benzonitrile]",Growth inhibitory effect on DU-145 cells,DU-145 cells,no growth inhibitory effect
same,Growth effect on MCF7,MCF7,no growth effect
same,Growth effect on SkBr3,SkBr3,no growth effect
same,Growth effect on 3T3,3T3,no growth effect
same,Potency relative to bicalutamide on hormone sensitive prostate cancer cells,LNCaP cells,10 fold
"Cc1ccc(N2C(=S)N(c3ccc(C#N)c(C(F)(F)F)c3)C(=O)C23CCC3)cc1 [RD37, 4-(8-oxo-6-thioxo-5-(4-methylphenyl)-5,7-diazaspiro[3.4]oct-7-yl)-2-trifluoromethylbenzonitrile]",IC50,AR [1],124 nM
same,IC50 compared with bicalutamide (FIG. 15),AR [1]; assay not specified,much lower than the IC50 for bicalutamide
same,IC50,AR [2],128 nM
same,"Rank order, most active to least active, relative PSA level (FIG. 4)",AR [2]; 500 nM,RD138>RD131>RD37>RD133>RD134>RD137>RD138>RD135>bicalutamide
same,"Decrease in PSA level of LNCaP-AR cells, comparison (FIG. 4)",AR [2]; at concentrations of 1000 nM,"greater decrease in PSA level of LNCaP-AR cells than RD133, RD134, and RD138"
same,"Agonistic activity on AR, reporter","AR [3]; LN-AR, absence of R1881",no agonistic activity
same,fold induction at 0.1 µM,"AR [3]; read-out: Fold induction of AR response reporter, 0.1 μM",0.87
same,fold induction at 1 µM,"AR [3]; read-out: Fold induction of AR response reporter, 1 μM",1.19
same,fold induction at 10 µM,"AR [3]; read-out: Fold induction of AR response reporter, 10 μM",0.89
same,"Agonistic activity, secreted PSA","AR [4]; AR over expressed LNCaP, absence of R1881",no agonistic activities
same,fold induction at 0.1 µM,"AR [4]; LNCaP, read-out: Fold induction of endogenous PSA, 0.1 μM",1.25
same,fold induction at 1 µM,"AR [4]; LNCaP, read-out: Fold induction of endogenous PSA, 1 μM",1.2
same,fold induction at 10 µM,"AR [4]; LNCaP, read-out: Fold induction of endogenous PSA, 10 μM",1.15
same,Effect on GR response reporter,[5],no effect on GR
same,Growth inhibitory effect on DU-145 cells,DU-145 cells,no growth inhibitory effect
same,Growth effect on MCF7,MCF7,no growth effect
same,Growth effect on SkBr3,SkBr3,no growth effect
same,Growth effect on 3T3,3T3,no growth effect
same,Potency relative to bicalutamide on hormone sensitive prostate cancer cells,LNCaP cells,10 fold
same,Growth of LNCaP-AR xenograft tumors (FIG. 7a),[6],strongly inhibited growth
same,Dose dependence of tumor growth inhibition (FIG. 7b),"[6]; 0.1, 1 or 10 mg per kg",dose-dependent
same,PSA expression in xenograft tumors (FIG. 8),"[6]; 0.1, 1 or 10 mg per kg, tumor lysate ELISA",inhibited PSA expression
same,Growth of hormone refractory LAPC4 xenograft (FIG. 9a),[7],strongly inhibited
same,PSA expression in hormone refractory LAPC4 xenograft (FIG. 9b),[7],strongly inhibited
same,"Pharmacokinetic behavior, residence time in blood",[8]; mice,metabolize fast
"CNC(=O)c1ccc(N2C(=S)N(c3ccc(C#N)c(C(F)(F)F)c3)C(=O)C23CCC3)cc1 [RD161, N-methyl-4-[7-(4-cyano-3-trifluoromethylphenyl)-8-oxo-6-thioxo-5,7-diazaspiro[3.4]oct-5-yl]benzamide]",Luciferase activity in LNCaP-AR cells (FIG. 3),AR [1],acted to reduce luciferase activity
same,"Rank order, most active to least active, relative luciferase activity (FIG. 3)",AR [1]; 500 nM,RD152>RD153>RD145>RD163>RD161=RD162>bicalutamide
same,"Luciferase activity, L1AR cell line (FIG. 24)",L1AR cell line,less than the luciferase activity upon exposure to RD149
"CNC(=O)c1ccc(N2C(=S)N(c3ccc(C#N)c(C(F)(F)F)c3)C(=O)C23CCC3)cc1F [RD162, N-methyl-4-[7-(4-cyano-3-trifluoromethylphenyl)-8-oxo-6-thioxo-5,7-diaza-spiro[3.4]oct-5-yl]-2-fluorobenzamide]",Luciferase activity in LNCaP-AR cells (FIG. 3),AR [1],acted to reduce luciferase activity
same,PSA levels of LN-AR cells (FIG. 21),"AR [2]; doses of 100, 200, 500 and 1000 nM",decreased
same,PSA levels of LN-AR cells (FIG. 14),AR [2]; various doses,PSA levels decreased
same,"Tumor volume, 1 mg per kg body weight per day (FIG. 18)",[9]; 1 mg per kg per day,the rate of tumor increase decreased
same,"Tumor volume, 10 mg per kg body weight per day (FIG. 18)",[9]; 10 mg per kg per day,tumor size decreased with time
same,Photon emission associated with luciferase activity (FIG. 20),[9]; [11],decrease in photon emission
same,Tumor size (FIG. 20),[9]; [11],decrease or stabilization of tumor size
same,Photon emission associated with luciferase activity (FIG. 19),"[9]; 10 mg per kg per day, day 17 relative to day 0",decreased
same,Tumor growth / tumor volume over time (FIG. 11),[9],effective to prevent tumor growth and even to cause tumor shrinkage; also recorded: tumors decreased in size
same,Photon emission associated with luciferase activity (FIG. 12),[9],decreased
same,"Css, 10 mg/kg [μM]","[8]; steady-state concentration in mice plasma, 10 mg/kg",9.9 µM
same,"Css, 25 mg/kg [μM]","[8]; steady-state concentration in mice plasma, 25 mg/kg",10.7 µM
same,"Css, 50 mg/kg [μM]","[8]; steady-state concentration in mice plasma, 50 mg/kg",10.2 µM
same,Photon emission associated with luciferase activity (FIG. 23),[10],decrease
same,Urogenital tract weight (FIG. 23),[10],decrease
same,"Luciferase activity, L1AR cell line (FIG. 24)",L1AR cell line,less than the luciferase activity upon exposure to RD149
"CC(O)(CS(=O)(=O)c1ccc(F)cc1)C(=O)Nc1ccc(C#N)c(C(F)(F)F)c1 (stereo not drawn) [Bicalutamide, N-[4-cyano-3-(trifluoromethyl)phenyl]-3-[(4-fluorophenyl)sulfonyl]-2-hydroxy-2-methylpropanamide, reference compound]",Inhibition of hormone sensitive LNCaP cell growth (MTS),LNCaP cells; dose-dependent,mildly inhibited
same,Growth of LNCaP-AR xenograft tumors (FIG. 7a),[6],did not inhibit growth
same,Growth of hormone refractory LAPC4 xenograft (FIG. 9a),[7],did not inhibit
same,PSA expression in hormone refractory LAPC4 xenograft (FIG. 9b),[7],did not inhibit
same,Tumor growth / tumor volume over time (FIG. 11),[9],tumors continued to grow
same,Photon emission associated with luciferase activity (FIG. 12),[9],remained about the same or increased
same,Photon emission associated with luciferase activity (FIG. 23),[10],decrease
same,Urogenital tract weight (FIG. 23),[10],decrease
